The record followed here is patent publication US8003599B2, “Inhibitors of L1 and ADAM10 for the treatment of carcinomas” (Deutsches Krebsforschungszentrum, priority 2004, dated 2011).

The assay deals with HEK293-hL1 cells. In words: Haptotactic cell migration assay in Transwell chambers, HEK293-hL1 cells. It is filed as cell-based, human. As to conditions: fibronectin, 24 h after transient transfection (FIG. 11). The procedure:
(C) Inhibition of haptotactic cell migration in the absence or presence of the indicated mAbs to integrins at a final concentration of 10 μg/ml. FN at 10 μg/ml or BSA for control were coated onto the backside of Transwell chambers. Cells were seeded into the top chamber and allowed to transmigrate for 16 hr at 37° C. The antibody was present during the assay time. Each determination was done in quadruplicate and transmigrated cells were stained from the back of the filter. The dye was eluted from the filter and measured at 595 nm. The amount of dye is proportional to the number of transmigrated cells. Values for the migration on BSA were below 0.25 O.D. units for each cell type.
The haptotactic cell migration assay on fibronectin, laminin or BSA was performed in Transwell chambers (Costar, 6.5 mm diameter, 5 um pore size) and was described in detail elsewhere (Mechtersheimer et al., supra). Transmigrated cells were quantified by staining of the transwell membranes with cristalviolet solution as described (Mechtersheimer at al., supra). The eluted dye was measured at 595 nm in an ELISA reader.

The structures appear in SMILES notation. Entries after “also recorded” stand apart in the source; their conditions may differ.

Take `COc1cccc(-c2cc(=O)c3ccccc3o2)c1N` [PD59098]: the “suppression of enhanced (L1-dependent) migration of HEK-293-hL1 wild type cells” value was “same effect; also recorded: could block the L1-dependent migration”.
